Experimental findings from US20240424004A1, “COMBINATION OF TLR LIGANDS, COMPOUNDS LABELLING TUMORS FOR IMMUNE ATTACK, ANTI-CD40 ANTIBODIES AND INHIBITORS OF GLUTAMINE METABOLISM FOR TREATING CANCER” (priority 2021, published 2024) are described below.

Data set [1] concerns Panc02 cells. Kind of data set: Example 6: bilateral Panc02 model, i.t. MBTA + DON i.t. (left tumor) versus i.p. The format is in vivo, C57BL/6 mice. To be noted: with MBTA in right tumor, days 1,8,15,22,29. The protocol:
(§1) Subcutaneous transplantation: Mice were subcutaneously injected with 4×10^5 Panc02 cells in 0.1 ml DMEM or 4×10^5 B16-F10 cells in 0.1 ml RPMI 1640 medium without additives into pre-shaved groin (right or both right and left).
(§2) MBTA immunotherapy: 50 μl of the therapeutic mixture consisting of 0.5 mg R-848, HCl form+0.5 mg poly (I:C), 0.5 mg LTA and 0.4 mg anti-CD40/ml of 0.2 mM mannan-BAM in PBS was administered intratumorally on days 0, 1, 2, 8, 9, 10, 16, 17, 18, 24, 25, and 26. The combination of R-848, poly (I:C), LTA, mannan-BAM and anti-CD40 antibody is hereinafter referred to as ‘MBTA’. In the case of the bilateral Panc02 tumor model, MBTA therapy was always injected only into the right subcutaneous tumor.
(§3) Evaluation of treatment: Tumor sizes were measured every other day using a digital calliper. The formula V=(π/6)AB^2, A being the largest tumor size, B being the smallest tumor size, was used to calculate tumor volume.
(§4) The areas under the curves (AUC) were calculated to evaluate tumor growth. The obtained values were statistically evaluated by one-way ANOVA with unequal post hoc test. Kaplan-Meier survival curves were evaluated using the long-rank test. STATISTICA 12 software (StatSoft, Inc., Tulsa, OK, USA) was used for all statistical evaluations. Error bars represent standard error of the mean (SEM). […]

Data set [2] deals with Panc02 cells. Kind of data set: Example 5: bilateral Panc02 model, i.t. MBTA + s.c. DON in different dosages. To be noted: with i.t. MBTA, DON s.c. 80 μg or 400 μg, days 1,9,17,25,33. The class given is in vivo, C57BL/6 mice. The protocol: as §1, §2, §3, §4
Data set [3] concerns Panc02 cells. Kind of data set: Example 7: bilateral Panc02 model, i.t. MBTA + i.p. DON, efficacy and side effects. Conditions: DON 400 μg i.p., days 1,8,15,22,29, with i.t. MBTA. The class given is in vivo. How it is done:
as §1, §2, §3, §4

The subject of data set [4] is Panc02 cells. Kind of data set: Example 4: bilateral Panc02 model, i.t. MBTA + i.p. DON in two timing regimes. The format is in vivo. Conditions: for prolongation of mice survival: FIG. 4C. The protocol: as §1, §2, §3
The areas under the curves (AUC) were calculated to evaluate tumor growth. The obtained values were statistically evaluated by one-way ANOVA with unequal post hoc test. Kaplan-Meier survival curves were evaluated using the long-rank test. STATISTICA 12 software (StatSoft, Inc., Tulsa, OK, USA) was used for all statistical evaluations. Error bars represent standard error of the mean (SEM).
To improve MBTA/DON combined therapy outcomes we tested the intraperitoneal administration of DON in combination with i.t. MBTA therapy. The total amount of DON (2 mg/mouse/therapy) was applied in two different regimes as further specified.
C57BL/6 mice were s.c. inoculated with Panc02 cells in both right and left flank. After 12 days, mice were randomized into four groups (n=6/group): Group treated with PBS applied in the right tumor; group treated with MBTA applied in the right tumor; group treated with MBTA applied in the right tumor, and DON applied i.p. (13 doses); group treated with MBTA applied in the right tumor, and DON applied i.p. (5 doses, red). MBTA (PBS in the control group) was applied in pulse regime on days 0, 1, 2, 8, 9, 10, 16, 17, 18, 24, 25, and 26. DON was administered i.p. on days 5, 13, 21, 29, 37 (400 μg) and 1, 3, 5, 7, 9, 11, 13 15 17 19 21, 23, 25 (154 μg), respectively.
FIG. 4A, B: Growth of right/left tumors. Statistical analysis was performed by calculating AUC (area under the curve) values using a one-way ANOVA test with Tukey's post hoc test (* p<0.05, **** p<0.001, ***** p<0.0005), FIG. 4 C: Survival analysis.

As to `[N-]=[N+]=CC(=O)CC[C@H](N)C(=O)O` [DON, 6-diazo-5-oxo-norleucine], in the data set with Panc02 cells [1] (DON 400 μg i.p., FIG. 6C), the “survival of treated mice” value is “significantly prolonged”. In addition, in the data set on Panc02 cells [1] (DON 400 μg i.t. in left tumor, FIG. 6), the “efficacy of the therapy” value is “did not improve the efficacy”. In addition, the “reduction of tumor growth, compared to i.p. administration of DON (Example 4)” value in the data set on Panc02 cells [2] (FIG. 5A, B) is given as “less evident”. The “early deaths of treated mice” value is reported as “No early deaths” in the data set on Panc02 cells [2] (FIG. 5C) and “did not observe any early deaths” with Panc02 cells [4] (DON i.p. with a sufficient interval between each application, with i.t. MBTA (summary of Examples 4 to 6)). The “water and food consumption” value with Panc02 cells [3] (FIG. 7D, E) is given as “without any influence”. Further, the “weight of treated mice” value in the data set on Panc02 cells [3] (FIG. 7F) is “without any influence”. Moreover, the “prolongation of mice survival” value in the data set with Panc02 cells [4] (with i.t. MBTA, DON i.p. 154 μg, 13 doses, every other day) is “evident but not statistically significant”; in the data set with Panc02 cells [4] (with i.t. MBTA, DON i.p. 400 μg, 5 doses) it was “evident but not statistically significant”. In the data set with Panc02 cells [4] (with i.t. MBTA, DON i.p. every other day (154 μg, 13 doses), n=6/group), the “tolerability of regime / early death” value was “too aggressive and resulted in early death of three mice”.
